What was measured:
Assay in all cases: biochemical
Type in all cases: binding
[1] = biological target: T1, panel of 442 kinases (Homo sapiens, UniProt P16234); conditions: kinase PDGFRA; for remaining activity at 1 µM: read-out: % of control at 1 µM
T1 construct: purchased Ambit Biosciences (scanMAXX KINOMEscan)

[2] = biological target: T2, panel of 442 kinases (Homo sapiens, UniProt P32298); conditions: kinase GRK4; for remaining activity at 1 µM: read-out: % of control at 1 µM
T2 construct: purchased Ambit Biosciences (scanMAXX KINOMEscan)

[3] = biological target: T3, panel of 442 kinases (Homo sapiens, UniProt P36888); conditions: FLT3; for remaining activity at 1 µM: read-out: % of control at 1 µM
T3 construct: purchased Ambit Biosciences (scanMAXX KINOMEscan)
T3 sequence (P36888 27-993): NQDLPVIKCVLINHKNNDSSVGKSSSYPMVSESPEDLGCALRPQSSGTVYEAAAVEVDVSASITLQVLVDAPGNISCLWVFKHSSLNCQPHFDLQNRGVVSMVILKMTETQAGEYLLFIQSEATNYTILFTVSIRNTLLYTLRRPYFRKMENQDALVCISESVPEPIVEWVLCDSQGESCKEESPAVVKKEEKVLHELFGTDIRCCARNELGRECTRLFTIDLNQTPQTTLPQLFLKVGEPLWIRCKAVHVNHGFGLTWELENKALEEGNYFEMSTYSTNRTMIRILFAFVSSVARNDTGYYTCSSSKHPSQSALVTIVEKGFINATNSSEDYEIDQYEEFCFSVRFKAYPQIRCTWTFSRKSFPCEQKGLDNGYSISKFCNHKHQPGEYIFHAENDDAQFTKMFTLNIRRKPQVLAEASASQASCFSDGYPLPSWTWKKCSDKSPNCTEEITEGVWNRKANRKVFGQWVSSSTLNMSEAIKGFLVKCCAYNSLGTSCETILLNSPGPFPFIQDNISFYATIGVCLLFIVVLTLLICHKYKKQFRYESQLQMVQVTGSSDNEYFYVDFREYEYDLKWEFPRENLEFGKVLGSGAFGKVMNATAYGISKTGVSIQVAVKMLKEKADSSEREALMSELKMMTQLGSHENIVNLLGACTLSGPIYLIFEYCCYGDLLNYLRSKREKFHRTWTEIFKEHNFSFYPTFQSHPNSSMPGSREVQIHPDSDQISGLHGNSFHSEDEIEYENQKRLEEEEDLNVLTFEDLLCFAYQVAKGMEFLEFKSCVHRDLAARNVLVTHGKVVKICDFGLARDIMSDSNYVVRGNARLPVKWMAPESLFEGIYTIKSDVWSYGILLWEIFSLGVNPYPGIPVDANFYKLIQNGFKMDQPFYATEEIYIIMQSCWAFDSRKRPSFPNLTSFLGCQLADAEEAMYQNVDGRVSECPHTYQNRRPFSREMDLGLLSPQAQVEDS

[4] = biological target: T4, panel of 442 kinases (Homo sapiens, UniProt Q00535); conditions: CDK5; for remaining activity at 1 µM: read-out: % of control at 1 µM
T4 construct: purchased Ambit Biosciences (scanMAXX KINOMEscan)

[5] = biological target: T5, panel of 442 kinases (Homo sapiens, UniProt Q05397); conditions: FAK; for remaining activity at 1 µM: read-out: % of control at 1 µM
T5 construct: purchased Ambit Biosciences (scanMAXX KINOMEscan)

[6] = biological target: T6, panel of 442 kinases (Homo sapiens, UniProt Q16288); conditions: kinase TRKC; for remaining activity at 1 µM: read-out: TRKC (% of control at 1 µM)
T6 construct: purchased Ambit Biosciences (scanMAXX KINOMEscan)

[7] = biological target: T7, panel of 442 kinases (Homo sapiens, UniProt Q7KZI7); conditions: kinase MARK2; for remaining activity at 1 µM: read-out: % of control at 1 µM
T7 construct: purchased Ambit Biosciences (scanMAXX KINOMEscan)

[8] = biological target: T8, panel of 442 kinases (Homo sapiens, UniProt Q8N5S9); conditions: CAMKK1; for remaining activity at 1 µM: read-out: % of control at 1 µM
T8 construct: purchased Ambit Biosciences (scanMAXX KINOMEscan)

[9] = biological target: T9, panel of 442 kinases (Homo sapiens, UniProt Q92918); conditions: kinase HPK1; for remaining activity at 1 µM: read-out: % of control at 1 µM
T9 construct: purchased Ambit Biosciences (scanMAXX KINOMEscan)

[10] = biological target: T10, panel of 442 kinases (Homo sapiens, UniProt Q9Y6E0); conditions: kinase MST3; for remaining activity at 1 µM: read-out: % of control at 1 µM
T10 construct: purchased Ambit Biosciences (scanMAXX KINOMEscan)

[11] = biological target: T11, panel of 442 kinases (Mycobacterium tuberculosis, UniProt P9WI81); conditions: for remaining activity at 1 µM: read-out: PKNB(M.tuberculosis) (% of control at 1 µM); for remaining activity at 10 µM: read-out: PKNB(M.tuberculosis) (% of control at 10 µM)
T11 construct: purchased Ambit Biosciences (scanMAXX KINOMEscan)

[12] = 10 µM, read-out: % of control at 10 µM

T6 sequence (Q16288 32-839): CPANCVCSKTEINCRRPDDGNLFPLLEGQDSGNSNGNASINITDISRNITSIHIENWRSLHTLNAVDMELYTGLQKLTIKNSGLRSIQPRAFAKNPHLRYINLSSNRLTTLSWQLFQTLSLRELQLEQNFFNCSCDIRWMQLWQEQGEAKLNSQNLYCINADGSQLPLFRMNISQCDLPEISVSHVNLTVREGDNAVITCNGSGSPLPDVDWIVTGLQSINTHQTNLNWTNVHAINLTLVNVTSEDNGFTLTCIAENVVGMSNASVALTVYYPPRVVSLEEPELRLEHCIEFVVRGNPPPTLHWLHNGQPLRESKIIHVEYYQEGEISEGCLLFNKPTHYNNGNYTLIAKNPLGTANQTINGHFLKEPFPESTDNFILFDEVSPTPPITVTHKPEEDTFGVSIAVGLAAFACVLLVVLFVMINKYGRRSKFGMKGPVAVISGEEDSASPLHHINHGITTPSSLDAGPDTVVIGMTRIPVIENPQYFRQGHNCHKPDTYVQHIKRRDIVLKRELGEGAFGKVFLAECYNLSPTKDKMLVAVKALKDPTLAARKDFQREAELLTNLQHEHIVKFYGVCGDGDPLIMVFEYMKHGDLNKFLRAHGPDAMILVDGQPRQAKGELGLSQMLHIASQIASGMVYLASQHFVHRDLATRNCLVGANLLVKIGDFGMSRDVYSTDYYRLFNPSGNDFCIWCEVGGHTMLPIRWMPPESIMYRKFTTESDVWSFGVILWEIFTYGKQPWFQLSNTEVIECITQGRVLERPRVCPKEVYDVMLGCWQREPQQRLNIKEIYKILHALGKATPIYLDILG
T4 sequence (Q00535 whole entry): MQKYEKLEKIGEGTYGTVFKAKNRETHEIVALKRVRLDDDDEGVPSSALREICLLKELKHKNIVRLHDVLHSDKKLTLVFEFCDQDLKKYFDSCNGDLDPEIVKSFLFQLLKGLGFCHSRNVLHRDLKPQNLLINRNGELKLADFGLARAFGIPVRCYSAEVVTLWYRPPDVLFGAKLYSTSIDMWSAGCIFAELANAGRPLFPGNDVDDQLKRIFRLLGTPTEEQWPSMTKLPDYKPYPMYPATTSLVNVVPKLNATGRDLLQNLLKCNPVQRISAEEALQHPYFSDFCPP
T9 sequence (Q92918 whole entry): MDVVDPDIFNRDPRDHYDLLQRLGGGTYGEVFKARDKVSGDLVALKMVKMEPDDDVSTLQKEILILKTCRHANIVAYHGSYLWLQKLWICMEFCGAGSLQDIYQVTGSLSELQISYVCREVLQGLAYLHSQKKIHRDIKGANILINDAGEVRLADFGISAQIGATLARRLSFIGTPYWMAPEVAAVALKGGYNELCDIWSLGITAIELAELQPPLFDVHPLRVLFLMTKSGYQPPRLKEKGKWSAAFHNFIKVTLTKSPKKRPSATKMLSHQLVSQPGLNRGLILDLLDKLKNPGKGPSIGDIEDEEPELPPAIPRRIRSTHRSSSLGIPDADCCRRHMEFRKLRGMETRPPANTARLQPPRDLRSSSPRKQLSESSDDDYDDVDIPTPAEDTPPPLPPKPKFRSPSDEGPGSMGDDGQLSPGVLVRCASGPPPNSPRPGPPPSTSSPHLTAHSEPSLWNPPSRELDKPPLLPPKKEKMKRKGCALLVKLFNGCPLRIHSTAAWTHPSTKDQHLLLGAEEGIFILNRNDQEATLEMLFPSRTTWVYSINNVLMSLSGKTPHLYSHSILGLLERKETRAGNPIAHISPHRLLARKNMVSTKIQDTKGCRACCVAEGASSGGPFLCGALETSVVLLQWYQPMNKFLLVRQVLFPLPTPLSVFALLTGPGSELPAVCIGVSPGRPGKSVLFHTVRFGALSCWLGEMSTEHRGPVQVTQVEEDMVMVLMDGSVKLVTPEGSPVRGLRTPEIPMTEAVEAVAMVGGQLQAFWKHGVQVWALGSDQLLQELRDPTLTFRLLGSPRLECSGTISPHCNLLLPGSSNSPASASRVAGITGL
T7 sequence (Q7KZI7 whole entry): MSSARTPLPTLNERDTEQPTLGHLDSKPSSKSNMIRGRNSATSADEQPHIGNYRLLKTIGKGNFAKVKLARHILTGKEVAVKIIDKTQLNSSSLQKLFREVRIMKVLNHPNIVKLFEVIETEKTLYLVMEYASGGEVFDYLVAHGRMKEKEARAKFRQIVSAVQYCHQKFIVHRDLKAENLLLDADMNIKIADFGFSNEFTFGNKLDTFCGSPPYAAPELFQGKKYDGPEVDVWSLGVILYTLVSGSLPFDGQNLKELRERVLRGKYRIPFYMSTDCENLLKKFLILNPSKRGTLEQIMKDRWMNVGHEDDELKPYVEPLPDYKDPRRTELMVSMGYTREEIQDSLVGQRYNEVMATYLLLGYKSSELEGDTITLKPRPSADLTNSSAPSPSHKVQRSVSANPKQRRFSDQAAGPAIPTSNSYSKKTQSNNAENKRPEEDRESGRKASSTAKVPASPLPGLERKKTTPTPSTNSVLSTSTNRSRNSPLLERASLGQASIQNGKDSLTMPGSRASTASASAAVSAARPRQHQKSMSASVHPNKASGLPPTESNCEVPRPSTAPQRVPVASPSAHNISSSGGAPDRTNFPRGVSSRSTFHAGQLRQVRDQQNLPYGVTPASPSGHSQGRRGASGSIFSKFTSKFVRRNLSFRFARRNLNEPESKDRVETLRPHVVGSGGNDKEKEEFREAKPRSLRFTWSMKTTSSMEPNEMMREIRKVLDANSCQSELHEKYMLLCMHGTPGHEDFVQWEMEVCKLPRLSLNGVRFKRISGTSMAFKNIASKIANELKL
T2 sequence (P32298 whole entry): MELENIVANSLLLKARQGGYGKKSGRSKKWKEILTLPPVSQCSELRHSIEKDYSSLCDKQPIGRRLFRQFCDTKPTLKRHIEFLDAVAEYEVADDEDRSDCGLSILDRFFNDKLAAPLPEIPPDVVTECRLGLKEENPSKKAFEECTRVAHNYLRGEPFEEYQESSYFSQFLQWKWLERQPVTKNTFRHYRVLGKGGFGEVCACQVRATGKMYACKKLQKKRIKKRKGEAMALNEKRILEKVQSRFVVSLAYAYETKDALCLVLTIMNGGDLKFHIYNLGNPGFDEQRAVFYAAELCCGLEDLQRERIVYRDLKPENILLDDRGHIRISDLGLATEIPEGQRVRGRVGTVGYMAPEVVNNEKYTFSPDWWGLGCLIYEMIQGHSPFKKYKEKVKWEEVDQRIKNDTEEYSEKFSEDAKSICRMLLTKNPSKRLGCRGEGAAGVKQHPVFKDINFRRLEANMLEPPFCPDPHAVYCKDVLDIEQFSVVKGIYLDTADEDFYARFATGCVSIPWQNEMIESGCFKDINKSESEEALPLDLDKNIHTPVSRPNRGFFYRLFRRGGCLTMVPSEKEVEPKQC
T8 sequence (Q8N5S9 whole entry): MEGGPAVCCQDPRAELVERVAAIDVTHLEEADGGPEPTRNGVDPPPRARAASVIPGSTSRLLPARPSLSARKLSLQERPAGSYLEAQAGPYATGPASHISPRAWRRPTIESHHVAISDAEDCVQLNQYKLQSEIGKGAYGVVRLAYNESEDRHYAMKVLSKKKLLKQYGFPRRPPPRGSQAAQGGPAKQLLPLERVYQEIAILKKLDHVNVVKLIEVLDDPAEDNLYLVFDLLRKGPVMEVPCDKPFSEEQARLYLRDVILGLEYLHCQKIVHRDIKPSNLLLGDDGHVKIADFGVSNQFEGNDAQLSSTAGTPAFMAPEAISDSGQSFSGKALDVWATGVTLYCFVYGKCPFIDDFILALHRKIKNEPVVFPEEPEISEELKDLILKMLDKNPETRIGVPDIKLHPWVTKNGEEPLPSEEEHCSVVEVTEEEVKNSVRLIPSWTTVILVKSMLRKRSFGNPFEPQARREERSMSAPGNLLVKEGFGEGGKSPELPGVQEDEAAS
T11 sequence (P9WI81 whole entry): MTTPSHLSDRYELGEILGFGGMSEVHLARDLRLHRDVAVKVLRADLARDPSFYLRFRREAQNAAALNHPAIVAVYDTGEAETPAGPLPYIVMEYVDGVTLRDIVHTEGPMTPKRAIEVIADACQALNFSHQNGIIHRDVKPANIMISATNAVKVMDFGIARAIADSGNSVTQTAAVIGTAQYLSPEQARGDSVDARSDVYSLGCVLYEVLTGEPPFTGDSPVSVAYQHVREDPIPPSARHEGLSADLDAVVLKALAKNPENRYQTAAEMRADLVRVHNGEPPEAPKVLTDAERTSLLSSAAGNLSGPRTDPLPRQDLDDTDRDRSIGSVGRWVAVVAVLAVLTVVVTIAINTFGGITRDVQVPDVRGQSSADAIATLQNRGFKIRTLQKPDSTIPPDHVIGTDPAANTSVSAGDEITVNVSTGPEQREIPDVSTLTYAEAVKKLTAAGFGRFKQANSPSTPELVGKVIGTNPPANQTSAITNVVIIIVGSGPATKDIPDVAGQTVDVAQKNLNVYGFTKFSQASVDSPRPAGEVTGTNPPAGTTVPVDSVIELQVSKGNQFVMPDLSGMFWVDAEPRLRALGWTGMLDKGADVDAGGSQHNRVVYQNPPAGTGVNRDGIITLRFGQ
T10 sequence (Q9Y6E0 whole entry): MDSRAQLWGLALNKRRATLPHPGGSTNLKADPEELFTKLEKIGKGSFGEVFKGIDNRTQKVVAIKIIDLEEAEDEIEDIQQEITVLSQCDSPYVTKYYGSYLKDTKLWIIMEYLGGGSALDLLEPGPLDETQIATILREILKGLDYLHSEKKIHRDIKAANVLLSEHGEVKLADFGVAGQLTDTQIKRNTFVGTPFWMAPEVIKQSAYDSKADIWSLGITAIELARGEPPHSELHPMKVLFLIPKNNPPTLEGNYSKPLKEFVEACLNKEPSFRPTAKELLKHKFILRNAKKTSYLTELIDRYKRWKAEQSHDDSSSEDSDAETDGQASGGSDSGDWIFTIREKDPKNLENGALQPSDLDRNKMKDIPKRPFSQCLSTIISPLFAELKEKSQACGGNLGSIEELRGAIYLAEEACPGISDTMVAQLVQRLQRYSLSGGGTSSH

Row | Structure (SMILES) | remaining activity at 1 µM [1] [%] | remaining activity at 1 µM [2] [%] | remaining activity at 1 µM [3] [%] | remaining activity at 1 µM [4] [%] | remaining activity at 1 µM [5] [%] | remaining activity at 1 µM [6] [%] | remaining activity at 1 µM [7] [%] | remaining activity at 1 µM [8] [%] | remaining activity at 1 µM [9] [%] | remaining activity at 1 µM [10] [%] | remaining activity at 1 µM [11] [%] | remaining activity at 10 µM [11] [%] | further results
1 | Nc1cc(C(F)(F)F)c(-c2cc(N3CCOCC3)nc(N3CCOCC3)n2)cn1 [Buparlisib] | 100 | 100 | 90 | 100 | 100 | 76 | 100 | 100 | 92 | 100 | 100 | 73 | remaining activity at 10 µM [1, 12]: 100%; remaining activity at 10 µM [2, 12]: 100%; remaining activity at 10 µM [3, 12]: 81%; remaining activity at 10 µM [4, 12]: 99%; remaining activity at 10 µM [5, 12]: 100%; remaining activity at 10 µM ([6]; 10 µM, read-out: TRKC (% of control at 10 µM)): 76%; remaining activity at 10 µM [7, 12]: 71%; remaining activity at 10 µM [8, 12]: 100%; remaining activity at 10 µM [9, 12]: 100%; remaining activity at 10 µM [10, 12]: 100%
2 | Cn1c(=O)n(-c2ccc(C(C)(C)C#N)cc2)c2c3cc(-c4cnc5ccccc5c4)ccc3ncc21 [Dactolisib, 2-methyl-2-[4-(3-methyl-2-oxo-8-quinolin-3-yl-2,3-dihydroimidazo[4,5-c]quinolin-1-yl)-phenyl] propionitrile] | 100 | 97 | 67 | 100 | 90 | 85 | 65 | 79 | 64 | 82 | 100 | – | –
3 | COc1ncc(-c2ccc3nccc(-c4ccnnc4)c3c2)cc1NS(=O)(=O)c1ccc(F)cc1F [Omipalisib] | 100 | 100 | 100 | 100 | 94 | 100 | 100 | 100 | 100 | 100 | 67 | – | –
4 | CS(=O)(=O)N1CCN(Cc2cc3nc(-c4cccc5[nH]ncc45)nc(N4CCOCC4)c3s2)CC1 [Pictilisib, 2-(1H-indazol-4-yl)-6-(4-methanesulfonyl-piperazin-1-ylmethyl)-4-morpholin-4-yl-t hieno[3,2-d]pyrimidine] | – | – | – | – | – | – | – | – | – | – | 85 | 55 | –
5 | FC(F)c1nc2ccccc2n1-c1nc(N2CCOCC2)nc(N2CCOCC2)n1 [ZSTK474, 2-(difluoromethyl)-1-[4,6-di(4-morpholinyl)-1,3,5-triazin-2-yl]-1H-benzimidazole] | 85 | 100 | 100 | 100 | 90 | 100 | 57 | 100 | 93 | 99 | 86 | – | –
